Test results: patent publication US5883091A, “1,3,4-oxadiazine derivatives having a pesticide effect” (priority 1994, dated 1999)

Test system: not listed separately
Assay: log p (pH 2), physical constants
Format: physicochemical
Details: not given

Going from `Fc1cccc(F)c1C1=NN(Cc2ccccc2)CCO1` [Example 38] to `Fc1cccc(F)c1C1=NN(Cc2ccc(-c3ccccc3)cc2)CCO1` [Example 30], the logD rises from 3.38 to 4.49.

Compared with `Fc1cccc(F)c1C1=NN(Cc2ccc(Br)cc2)CCO1` [Example 22], `Fc1cccc(C2=NN(Cc3ccc(Br)cc3)CCO2)c1` [Example 35] is higher in logD: 4.03 for the first, 4.8 for the second.

First: Fc1ccc(CN2CCOC(c3ccc(Cl)c(Cl)c3)=N2)cc1Oc1ccccc1 [Example 27]
Second: Fc1ccc(CN2CCOC(c3cc(Cl)ccc3Cl)=N2)cc1Oc1ccccc1 [Example 33]
The logD of the first is higher: 6.13 for the first, 5.41 for the second.

First: Fc1cccc(C2=NN(Cc3ccc(-c4ccc(OC(F)(F)F)cc4)cc3)CCO2)c1 [Example 36]
Second: Fc1cccc(F)c1C1=NN(Cc2ccc(-c3ccc(OC(F)(F)F)cc3)cc2)CCO1 [Example 29]
The logD of the first is higher: 5.87 for the first, 5.15 for the second.

Going from `Clc1ccc(COc2c(Cl)cc(CN3CCOC(c4cccs4)=N3)cc2Cl)cc1` [Example 24] to `Fc1cccc(F)c1C1=NN(Cc2cc(Cl)c(OCc3ccc(Cl)cc3)c(Cl)c2)CCO1` [Example 21], the logD falls from 5.95 to 5.67.

Going from `Fc1ccc(C2=NN(Cc3ccc(Br)cc3)CCO2)cc1` [Example 32] to `Brc1ccc(CN2CCOC(c3cccs3)=N2)cc1` [Example 20], the logD falls from 4.73 to 4.26.

`FC(F)(F)c1cccc(C2=NN(Cc3ccc(Oc4ccc(C(F)(F)F)cc4Cl)cc3)CCO2)c1` [Example 31] and `FC(F)(F)c1ccc(C2=NN(Cc3ccc(Oc4ccc(C(F)(F)F)cc4Cl)cc3)CCO2)cc1` [Example 26] are within 0.2 log units of each other in logD: 6.43 for the first, 6.44 for the second.

`Clc1ccc(Cl)c(C2=NN(Cc3cccc(Oc4ccccc4)c3)CCO2)c1` [Example 25] and `Clc1ccc(C2=NN(Cc3ccc(Oc4ccccc4)cc3)CCO2)c(Cl)c1` [Example 18] are within 0.2 log units of each other in logD: 5.57 for the first, 5.61 for the second.

Compared with `FC(F)(F)Oc1ccc(-c2ccc(CN3CCOC(c4cccs4)=N3)cc2)cc1` [Example 23], `FC(F)(F)Oc1ccc(-c2ccc(CN3CCOC(c4cc(Cl)cc(Cl)c4)=N3)cc2)cc1` [Example 37] is higher in logD: 5.41 for the first, 7.36 for the second.

`FC(F)(F)c1ccc(Oc2ccc(CN3CCOC(c4cc(Cl)ccc4Cl)=N3)cc2)c(Cl)c1` [Example 19] and `Clc1cc(Cl)cc(C2=NN(Cc3ccc(Br)cc3)CCO2)c1` [Example 34] are within 0.2 log units of each other in logD: 6.35 for the first, 6.47 for the second.

Test system: two-spotted spider mite (Tetranychus urticae)
Assay: Tetranychus-Test (OP resistant/spray treatment)
Format: in vivo
Details: Tetranychus urticae, 120 h; after 5 days; active compound concentration 0.001%; OP resistant; spray treatment of infested bean plants; 100% = all spider mites destroyed, 0% = none destroyed; read-out: destruction of spider mites (action in %)
Procedure: Tetranychus-Test (OP resistant/spray treatment)
Solvent: 3 parts by weight of dimethylformamide
Emulsifier: 1 part by weight of alkylaryl polyglycol ether
To prepare a suitable preparation of active compound, 1 part by weight of active compound is mixed with the stated amount of solvent and the stated amount of emulsifier, and the concentrate is diluted with water to the desired concentrations.
Bean plants (Phaseolus vulgaris) which are severely infested with all stages of the two-spotted spider mite (Teiranychus urticae) are sprayed with a preparation of active compound of the desired concentration.
After the desired time, the action is determined in %. 100% means that all spider mites have been destroyed; 0% means that no spider mites have been destroyed.

Going from `Fc1cccc(F)c1C1=NN(c2ccc(-c3ccc(OC(F)(F)F)cc3)cc2)CCO1` [Example 3, 4-[4-(4-trifluoromethoxyphenyl)phenyl]-2-(2,6-difluorophenyl)-4H-5,6-dihydro-1,3,4-oxadiazine] to `CC(C)(C)c1ccc(CN2CCOC(c3c(F)cccc3F)=N2)cc1` [Example 4, 2-(2,6-difluorophenyl)-4-(4-tert-butylbenzyl)-4H-5,6-dihydro-1,3,4-oxadiazine], the mortality at 0.001 % rises from 95% to 98%.

Same assay, conditions: after 5 days; active compound concentration 0.001%; OP resistant; spray treatment of infested bean plants; 100% = all spider mites destroyed, 0% = none destroyed

For `FCCN1CCOC(c2ccc(Br)cc2)=N1` [A, 2-(4-Bromophenyl)-4-(2-fluoroeth-1-yl)-4H-5,6-dihydro-1,3,4-oxadiazine, reference compound], the “destruction of spider mites (action in %)” value was “no action”.
